Results taken from patent publication US20240132431A1, “METHOD FOR ALKYLATING ACIDIC FUNCTIONAL GROUP” (Chugai Seiyaku Kabushiki Kaisha, priority 2021, published 2024).

Target: T1, Bcl-2 protein (Recombinant Human Bcl-2 Protein) (Homo sapiens, UniProt P10415)
T1 construct: purchased Novus NBP2-34889
Assay: Binding evaluation of mixture library compounds to Bcl-2 using AS-MS (affinity selection mass spectrometry)
Settings: for ASMS ratio (%) n = 1 / ASMS ratio (%) n = 2: ASMS Ratio(%)=(A−C)/B×100; for ASMS ratio (%) n = 1: replicate n = 1; for ASMS ratio (%) n = 2: replicate n = 2
Outline: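 Readout is ASMS Ratio (%), (A−C)/B×100, from reversed-phase LC/MS of SEC-passed extracts, with protein-free unfiltered standard (B) and protein-free SEC blank (C). Recombinant human Bcl-2 at 20 μM final met ~1200 pooled compounds at […] each for 1 h, 23° C., dark, in Tris-HCl pH 7.4 buffer.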

[1] = AS-MS, mixture of 1200 compounds, Bcl-2
[2] = AS-MS on the mixture of 1200 library compounds

T1 sequence (P10415 whole entry): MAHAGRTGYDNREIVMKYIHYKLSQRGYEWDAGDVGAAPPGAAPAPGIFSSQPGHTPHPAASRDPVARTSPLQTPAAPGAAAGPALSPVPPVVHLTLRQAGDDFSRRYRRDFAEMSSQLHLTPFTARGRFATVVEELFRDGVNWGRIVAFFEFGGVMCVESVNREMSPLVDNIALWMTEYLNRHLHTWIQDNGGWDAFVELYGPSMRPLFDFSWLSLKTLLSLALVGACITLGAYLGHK

Molecule: 4-[4-[[3-Ethoxy-5-(5-ethoxypyridin-3-yl)phenyl]methyl]piperazin-1-yl]-N-propylbenzamide [B1M011-01]
- ASMS ratio (%) n = 1 [1]: 18.6%
- ASMS ratio (%) n = 2 [1]: 7.5%

Molecule: 6-[4-[[4-(3-Ethoxyphenyl)-2-ethylphenyl]methyl]piperazin-1-yl]-N-propylpyridazine-3-carboxamide [B1M070-01]
- ASMS ratio (%) n = 1 [1]: 0.0%
- ASMS ratio (%) n = 2 [1]: 0.0%

Molecule: 4-[4-[[4-(3-Ethoxyphenyl)naphthalen-1-yl]methyl]piperazin-1-yl]-N-propylbenzamide [B1M044-01]
- ASMS ratio (%) n = 1 [1]: 1.0%
- ASMS ratio (%) n = 2 [1]: 1.1%

Molecule: CCOc1cncc(-c2ccc(CN3CCN(c4ccc(C(=O)NS(=O)(=O)CCC(F)(F)F)nn4)CC3)cc2C)c1 [B2N074-01, 6-[4-[[4-(5-Ethoxypyridin-3-yl)-3-methylphenyl]methyl]piperazin-1-yl]-N-(3,3,3-trifluoropropylsulfonyl)pyridazine-3-carboxamide]
- ASMS ratio (%) (n = 1): 0.0%
- ASMS ratio (%) (n = 2): 0.0%

Molecule: CCOc1cccc(-c2cc(CN3CCN(c4ccc(C(=O)NS(=O)(=O)CCC(F)(F)F)nn4)CC3)cc(OCC)c2)c1 [B2N081-01, 6-[4-[[3-Ethoxy-5-(3-ethoxyphenyl)phenyl]methyl]piperazin-1-yl]-N-(3,3,3-trifluoropropylsulfonyl)pyridazine-3-carboxamide]
- ASMS ratio (%) (n = 1): 0.0%
- ASMS ratio (%) (n = 2): 0.0%

Molecule: CCOc1cncc(-c2cc(C(=O)N3CCN(c4ccc(C(=O)N(C)CC56CC7CC(CC(C7)C5)C6)cc4)CC3)cc(C(C)(C)C)c2)c1 [B3A038-01, N-(1-Adamantylmethyl)-4-[4-[3-tert-butyl-5-(5-ethoxypyridin-3-yl)benzoyl]piperazin-1-yl]-N-methylbenzamide]
- ASMS ratio (%) n = 1 [2]: 2.5%
- ASMS ratio (%) n = 2 [2]: −2.9%

Molecule: CCOc1cncc(-c2ccc(CN3CCN(c4ccc(C(=O)N(C)CC56CC7CC(CC(C7)C5)C6)cc4)CC3)c(CC)c2)c1 [B3A050-01, N-(1-Adamantylmethyl)-4-[4-[[4-(5-ethoxypyridin-3-yl)-2-ethylphenyl]methyl]piperazin-1-yl]-N-methylbenzamide]
- ASMS ratio (%) n = 1 [2]: 6.1%
- ASMS ratio (%) n = 2 [2]: −4.3%

Molecule: CCOc1cncc(C#Cc2ccccc2C(=O)N2CCN(c3ccc(C(=O)NS(=O)(=O)c4ccc(NCCSc5ccccc5)c(C(F)(F)F)c4)nn3)CC2)c1 [B2R008-01, 6-[4-[2-[2-(5-Ethoxypyridin-3-yl)ethynyl]benzoyl]piperazin-1-yl]-N-[4-(2-phenylsulfanylethylamino)-3-(trifluoromethyl)phenyl]sulfonylpyridazine-3-carboxamide]
- ASMS ratio (%) (n = 1): 0.0%
- ASMS ratio (%) (n = 2): 19.5%

Molecule: CCOc1cccc(-c2cc(CN3CCN(c4ccc(C(=O)NS(=O)(=O)C(C)(C)C)nn4)CC3)cc(OC(F)(F)F)c2)c1 [B2L089-01, N-tert-Butylsulfonyl-6-[4-[[3-(3-ethoxyphenyl)-5-(trifluoromethoxy)phenyl]methyl]piperazin-1-yl]pyridazine-3-carboxamide]
- ASMS ratio (%) (n = 1): 0.0%
- ASMS ratio (%) (n = 2): 0.0%

Molecule: CCOc1cccc(C#Cc2cc(C(=O)N3CCN(c4ccc(C(=O)NCC56CC7CC(CC(C7)C5)C6)nn4)CC3)cc(C(F)(F)F)c2)c1 [B1A019-01, N-(1-Adamantylmethyl)-6-[4-[3-[2-(3-ethoxyphenyl)ethynyl]-5-(trifluoromethyl)benzoyl]piperazin-1-yl]pyridazine-3-carboxamide]
- ASMS ratio (%) n = 1 [1]: −3.9%
- ASMS ratio (%) n = 2 [1]: −7.5%

Molecule: CCOc1cccc(-c2ccc(C(C)N3CCN(c4ccc(C(=O)NS(=O)(=O)c5ccc(NCCSc6ccccc6)c([N+](=O)[O-])c5)cc4)CC3)c(F)c2)c1 (stereo not shown) [B2Q099-01, 4-[4-[1-[4-(3-Ethoxyphenyl)-2-fluorophenyl]ethyl]piperazin-1-yl]-N-[3-nitro-4-(2-phenylsulfanylethylamino)phenyl]sulfonylbenzamide]
- ASMS ratio (%) n = 2 (AS-MS, mixture library, Bcl-2): 0.0%

Molecule: CCOc1cccc(-c2cc(CN3CCN(c4ccc(C(=O)NS(=O)(=O)CCC(F)(F)F)cc4)CC3)cc(OC(F)(F)F)c2)c1 [B2N063-01, 4-[4-[[3-(3-Ethoxyphenyl)-5-(trifluoromethoxy)phenyl]methyl]piperazin-1-yl]-N-(3,3,3-trifluoropropylsulfonyl)benzamide]
- ASMS ratio (%) (n = 1): −0.3%
- ASMS ratio (%) (n = 2): −3.8%

Molecule: CCOc1cncc(-c2cc(CN3CCN(c4ccc(C(=O)NS(=O)(=O)C(C)(C)C)cc4)CC3)cc(OC(F)(F)F)c2)c1 [B2L064-01, N-tert-Butylsulfonyl-4-[4-[[3-(5-ethoxypyridin-3-yl)-5-(trifluoromethoxy)phenyl]methyl]piperazin-1-yl]benzamide]
- ASMS ratio (%) (n = 1): 0.0%
- ASMS ratio (%) (n = 2): 0.0%

Molecule: CCCNC(=O)c1ccc(N2CCN(Cc3ccc(-c4cncc(OCC)c4)cc3CC)CC2)cc1 [B1M075-01]
- ASMS ratio (%) n = 1 [1]: 77.3%
- ASMS ratio (%) n = 2 [1]: 46.1%

Molecule: CCOc1cncc(-c2ccc(C(=O)N3CCN(c4ccc(C(=O)N(C)CC56CC7CC(CC(C7)C5)C6)nn4)CC3)cc2F)c1 [B3A006-01, N-(1-Adamantylmethyl)-6-[4-[4-(5-ethoxypyridin-3-yl)-3-fluorobenzoyl]piperazin-1-yl]-N-methylpyridazine-3-carboxamide]
- ASMS ratio (%) n = 1 [2]: 0.0%
- ASMS ratio (%) n = 2 [2]: 0.0%

Molecule: CCOc1cccc(-c2cc(C(=O)N3CCN(c4ccc(C(=O)NS(C)(=O)=O)nn4)CC3)cc(C(F)(F)F)c2)c1 [B2I017-01, 6-[4-[3-(3-Ethoxyphenyl)-5-(trifluoromethyl)benzoyl]piperazin-1-yl]-N-methylsulfonylpyridazine-3-carboxamide]
- ASMS ratio (%) n = 1 (AS-MS, mixture library, Bcl-2): 0.0%
- ASMS ratio (%) n = 2 (AS-MS, mixture library, Bcl-2): 0.0%

Molecule: CCOc1cccc(-c2ccc(C(C)N3CCN(c4ccc(C(=O)NCC(F)(F)F)cc4)CC3)c(F)c2)c1 (stereo not shown) [B1K099-01, 4-[4-[1-[4-(3-Ethoxyphenyl)-2-fluorophenyl]ethyl]piperazin-1-yl]-N-(2,2,2-trifluoroethyl)benzamide]
- ASMS ratio (%) n = 1 [1]: 0.0%
- ASMS ratio (%) n = 2 [1]: 0.0%

Molecule: CCOc1cccc(-c2ccc(C(C)N3CCN(c4ccc(C(=O)NCC56CC7CC(CC(C7)C5)C6)cc4)CC3)cc2)c1 (stereo not shown) [B1A097-01, N-(1-Adamantylmethyl)-4-[4-[1-[4-(3-ethoxyphenyl)phenyl]ethyl]piperazin-1-yl]benzamide]
- ASMS ratio (%) n = 1 [1]: 3.2%
- ASMS ratio (%) n = 2 [1]: 2.5%

Molecule: CCOc1cncc(-c2ccccc2CN2CCN(c3ccc(C(=O)NCC(F)(F)F)nn3)CC2)c1 [B1K072-01, 6-[4-[[2-(5-Ethoxypyridin-3-yl)phenyl]methyl]piperazin-1-yl]-N-(2,2,2-trifluoroethyl)pyridazine-3-carboxamide]
- ASMS ratio (%) n = 1 [1]: −0.6%
- ASMS ratio (%) n = 2 [1]: 1.7%

Molecule: CCOc1cncc(-c2csc(CN3CCN(c4ccc(C(=O)N(CC)CC)cc4)CC3)c2)c1 [B4J068-01, 4-[4-[[4-(5-Ethoxypyridin-3-yl)thiophen-2-yl]methyl]piperazin-1-yl]-N,N-diethylbenzamide]
- ASMS ratio (%) n = 1 (AS-MS, mixture library, Bcl-2): 0.7%
- ASMS ratio (%) n = 2 (AS-MS, mixture library, Bcl-2): 0.0%

Molecule: CCOc1cncc(-c2ccc(CN3CCN(c4ccc(C(=O)N(CC)CC)nn4)CC3)c(OC)c2)c1 [B4J080-01]
- ASMS ratio (%) n = 1 (AS-MS, mixture library, Bcl-2): 0.0%
- ASMS ratio (%) n = 2 (AS-MS, mixture library, Bcl-2): 0.0%

Molecule: CCOc1cccc(-c2ccc(CN3CCN(c4ccc(C(=O)NS(=O)(=O)CC56CC7CC(CC(C7)C5)C6)cc4)CC3)cc2C)c1 [B2A047-01, N-(1-Adamantylmethylsulfonyl)-4-[4-[[4-(3-ethoxyphenyl)-3-methylphenyl]methyl]piperazin-1-yl]benzamide]
- ASMS ratio (%) n = 1 (AS-MS, mixture library, Bcl-2): 9.7%
- ASMS ratio (%) n = 2 (AS-MS, mixture library, Bcl-2): 0.4%

Molecule: 6-[4-[4-(5-Ethoxypyridin-3-yl)-3-fluorobenzoyl]piperazin-1-yl]-N-propylpyridazine-3-carboxamide [B1M088-01]
- ASMS ratio (%) n = 1 [2]: 0.0%
- ASMS ratio (%) n = 2 [2]: 0.0%

Molecule: CCOc1cncc(-c2ccc(C(=O)N3CCN(c4ccc(C(=O)NS(C)(=O)=O)nn4)CC3)cc2C)c1 [B2I004-01, 6-[4-[4-(5-Ethoxypyridin-3-yl)-3-methylbenzoyl]piperazin-1-yl]-N-methylsulfonylpyridazine-3-carboxamide]
- ASMS ratio (%) n = 1 (AS-MS, mixture library, Bcl-2): 0.9%
- ASMS ratio (%) n = 2 (AS-MS, mixture library, Bcl-2): −0.3%

Molecule: CCOc1cccc(-c2ccc(CN3CCN(c4ccc(C(=O)N(C)CC56CC7CC(CC(C7)C5)C6)cc4)CC3)c3ccccc23)c1 [B3A065-01, N-(1-Adamantylmethyl)-4-[4-[[4-(3-ethoxyphenyl)naphthalen-1-yl]methyl]piperazin-1-yl]-N-methylbenzamide]
- ASMS ratio (%) n = 1 [2]: 0.0%
- ASMS ratio (%) n = 2 [2]: 0.0%

Molecule: CCOc1cccc(-c2ccc(CN3CCN(c4ccc(C(=O)N(C)CC56CC7CC(CC(C7)C5)C6)nn4)CC3)c(CC)c2)c1 [B3A075-01, N-(1-Adamantylmethyl)-6-[4-[[4-(3-ethoxyphenyl)-2-ethylphenyl]methyl]piperazin-1-yl]-N-methylpyridazine-3-carboxamide]
- ASMS ratio (%) n = 1 [2]: −5.8%
- ASMS ratio (%) n = 2 [2]: −16.0%

Molecule: CCOc1cccc(-c2ccc(C(=O)N3CCN(c4ccc(C(=O)NS(=O)(=O)c5ccc(NCCSc6ccccc6)c([N+](=O)[O-])c5)cc4)CC3)c3ccccc23)c1 [B2Q035-01, 4-[4-[4-(3-Ethoxyphenyl)naphthalene-1-carbonyl]piperazin-1-yl]-N-[3-nitro-4-(2-phenylsulfanylethylamino)phenyl]sulfonylbenzamide]
- ASMS ratio (%) n = 1 (AS-MS, mixture library, Bcl-2): 9.9%
- ASMS ratio (%) n = 2 (AS-MS, mixture library, Bcl-2): −13.7%

Molecule: CCOc1cccc(-c2cc(OC)c(CN3CCN(c4ccc(C(=O)NCC(F)(F)F)nn4)CC3)c(OC)c2)c1 [B1K085-01]
- ASMS ratio (%) n = 1 [1]: 4.2%
- ASMS ratio (%) n = 2 [1]: −0.2%
